Laboratory results published in PMC9518264, “Design and synthesis of novel quinazolinone-based derivatives as EGFR inhibitors with antitumor activity” (Journal of Enzyme Inhibition and Medicinal Chemistry, 2022).

Columns and labels:
[1] = system: CCRF-CEM; test: cells; format: cell-based; conditions: Homo sapiens, 10 μM, read-out: growth inhibition % (GI%)
[2] = system: HL-60(TB); test: cells; format: cell-based; conditions: Homo sapiens; HL-60(TB); 10 μM; read-out: growth inhibition % (GI%)
[3] = system: K-562; test: cells; format: cell-based; conditions: Homo sapiens, K562; K-562; 10 μM; read-out: growth inhibition % (GI%)
[4] = system: MOLT-4; test: cells; format: cell-based; conditions: Homo sapiens; MOLT-4; 10 μM; read-out: growth inhibition % (GI%)
[5] = system: RPMI-8226; test: cells; format: cell-based; conditions: Homo sapiens; RPMI-8226; 10 μM; read-out: growth inhibition % (GI%)
[6] = system: SR; test: cells; format: cell-based; conditions: Homo sapiens, 10 μM, read-out: growth inhibition % (GI%)
[7] = system: A549/ATCC; test: cells; format: cell-based; conditions: Homo sapiens; A549/ATCC; 10 μM; read-out: growth inhibition % (GI%)
[8] = system: EKVX; test: cells; format: cell-based; conditions: Homo sapiens, 10 μM, read-out: growth inhibition % (GI%)
[9] = system: HOP-62; test: cells; format: cell-based; conditions: Homo sapiens; HOP-62; 10 μM; read-out: growth inhibition % (GI%)
[10] = system: NCI-H226; test: cells; format: cell-based; conditions: Homo sapiens; NCI-H226; 10 μM; read-out: growth inhibition % (GI%)
[11] = system: NCI-H322M; test: cells; format: cell-based; conditions: Homo sapiens, 10 μM, read-out: growth inhibition % (GI%)
[12] = system: NCI-H460; test: cells; format: cell-based; conditions: Homo sapiens; NCI-H460; 10 μM; read-out: growth inhibition % (GI%)
[13] = system: NCI-H522; test: cells; format: cell-based; conditions: Homo sapiens; NCI-H522; 10 μM; read-out: growth inhibition % (GI%)
[14] = system: COLO-205; test: cells; format: cell-based; conditions: Homo sapiens; COLO-205; 10 μM; read-out: growth inhibition % (GI%)
[15] = system: HCC-2998; test: cells; format: cell-based; conditions: Homo sapiens; HCC-2998; 10 μM; read-out: growth inhibition % (GI%)
[16] = system: HCT-116; test: cells; format: cell-based; conditions: Homo sapiens; HCT-116; 10 μM; read-out: growth inhibition % (GI%)
[17] = system: HCT-15; test: cells; format: cell-based; conditions: Homo sapiens; HCT-15; 10 μM; read-out: growth inhibition % (GI%)
[18] = system: HT29; test: cells; format: cell-based; conditions: Homo sapiens, HT-29; HT29; 10 μM; read-out: growth inhibition % (GI%)
[19] = system: KM12; test: cells; format: cell-based; conditions: Homo sapiens; KM12; 10 μM; read-out: growth inhibition % (GI%)
[20] = system: SW-620; test: cells; format: cell-based; conditions: Homo sapiens; SW-620; 10 μM; read-out: growth inhibition % (GI%)
[21] = system: SF-295; test: cells; format: cell-based; conditions: Homo sapiens; SF-295; 10 μM; read-out: growth inhibition % (GI%)
[22] = system: SF-539; test: cells; format: cell-based; conditions: Homo sapiens; SF-539; 10 μM; read-out: growth inhibition % (GI%)
[23] = system: SNB-19; test: cells; format: cell-based; conditions: Homo sapiens; SNB-19; 10 μM; read-out: growth inhibition % (GI%)
[24] = system: SNB-75; test: cells; format: cell-based; conditions: Homo sapiens; SNB-75; 10 μM; read-out: growth inhibition % (GI%)
[25] = system: U251; test: cells; format: cell-based; conditions: Homo sapiens, U-251; U251; 10 μM; read-out: growth inhibition % (GI%)
[26] = system: LOX IMIV; test: cells; format: cell-based; conditions: Homo sapiens, 60 cell; LOX IMIV; 10 μM; read-out: growth inhibition % (GI%)
[27] = system: MDA-MB-435; test: cells; format: cell-based; conditions: Homo sapiens; MDA-MB-435; 10 μM; read-out: growth inhibition % (GI%)
[28] = system: SK-MEL-28; test: cells; format: cell-based; conditions: Homo sapiens; SK-MEL-28; 10 μM; read-out: growth inhibition % (GI%)
[29] = system: SK-MEL-5; test: cells; format: cell-based; conditions: Homo sapiens; SK-MEL-5; 10 μM; read-out: growth inhibition % (GI%)
[30] = system: UACC-62; test: cells; format: cell-based; conditions: Homo sapiens; UACC-62; 10 μM; read-out: growth inhibition % (GI%)
[31] = system: IGROV1; test: cells; format: cell-based; conditions: Homo sapiens, IGROV-1; IGROV1; 10 μM; read-out: growth inhibition % (GI%)
[32] = system: OVCAR-4; test: cells; format: cell-based; conditions: Homo sapiens; OVCAR-4; 10 μM; read-out: growth inhibition % (GI%)
[33] = system: NCI/ADR-RES; test: cells; format: cell-based; conditions: Homo sapiens, 10 μM, read-out: growth inhibition % (GI%)
[34] = system: SK-OV-3; test: cells; format: cell-based; conditions: Homo sapiens; SK-OV-3; 10 μM; read-out: growth inhibition % (GI%)
[35] = system: 786-0; test: cells; format: cell-based; conditions: Homo sapiens; 786-0; 10 μM; read-out: growth inhibition % (GI%)
[36] = system: A498; test: cells; format: cell-based; conditions: Homo sapiens; A498; 10 μM; read-out: growth inhibition % (GI%)
[37] = system: ACHN; test: cells; format: cell-based; conditions: Homo sapiens, 10 μM, read-out: growth inhibition % (GI%)
[38] = system: SN12C; test: cells; format: cell-based; conditions: Homo sapiens, 10 μM, read-out: growth inhibition % (GI%)
[39] = system: TK-10; test: cells; format: cell-based; conditions: Homo sapiens; TK-10; 10 μM; read-out: growth inhibition % (GI%)
[40] = system: PC-3; test: cells; format: cell-based; conditions: Homo sapiens; PC-3; 10 μM; read-out: growth inhibition % (GI%)
[41] = system: DU-145; test: cells; format: cell-based; conditions: Homo sapiens; DU-145; 10 μM; read-out: growth inhibition % (GI%)
[42] = system: MCF7; test: cells; format: cell-based; conditions: Homo sapiens; MCF7; 10 μM; read-out: growth inhibition % (GI%)
[43] = system: BT-549; test: cells; format: cell-based; conditions: Homo sapiens; BT-549; 10 μM; read-out: growth inhibition % (GI%)
[44] = system: panel of 60 tumour cell lines; test: NCI 60 cell line antiproliferative screening (SRB), whole panel or subpanels (means, ranges, words); format: cell-based, human; conditions: for antiproliferative activity against all tested cell lines: 10 μM single dose; for inhibition at 10 µM: Homo sapiens, 60 cell, read-out: Mean growth inhibition % (mean GI%)
[45] = system: MDA-MB-468; test: NCI 60 cell line antiproliferative screening (SRB), Breast cancer; conditions: Homo sapiens, MDA-MB-468, read-out: growth inhibition % (GI%)
[46] = system: OVCAR-3; test: NCI 60 cell line antiproliferative screening (SRB), Ovarian cancer; conditions: Homo sapiens, OVCAR-3, read-out: growth inhibition % (GI%)
[47] = mean over the cell line panel, 10 μM

O=C(CSc1nc2ccccc2c(=O)n1-c1ccccc1)NN=Cc1ccc(N2CCOCC2)cc1 [6h, N'-(4-morpholinobenzylidene)-2-((4-oxo-3-phenyl-3,4-dihydroquinazolin-2-yl)thio)acetohydrazide]
inhibition at 10 µM [1]: < 15%
inhibition at 10 µM [2]: < 15%
inhibition at 10 µM [3]: < 15%
inhibition at 10 µM [4]: < 15%
inhibition at 10 µM [5]: < 15%
inhibition at 10 µM [6]: < 15%
inhibition at 10 µM [7]: < 15%
inhibition at 10 µM [8]: < 15%
inhibition at 10 µM [9]: < 15%
inhibition at 10 µM [10]: < 15%
inhibition at 10 µM [11]: < 15%
inhibition at 10 µM [12]: < 15%
inhibition at 10 µM [13]: < 15%
inhibition at 10 µM [14]: < 15%
inhibition at 10 µM [15]: < 15%
inhibition at 10 µM [16]: < 15%
inhibition at 10 µM [17]: < 15%
inhibition at 10 µM [18]: < 15%
inhibition at 10 µM [19]: < 15%
inhibition at 10 µM [20]: < 15%
inhibition at 10 µM [21]: < 15%
inhibition at 10 µM [22]: < 15%
inhibition at 10 µM [23]: < 15%
inhibition at 10 µM [24]: < 15%
inhibition at 10 µM [25]: < 15%
inhibition at 10 µM [26]: < 15%
inhibition at 10 µM [27]: < 15%
inhibition at 10 µM [28]: < 15%
inhibition at 10 µM [29]: < 15%
inhibition at 10 µM [30]: < 15%
inhibition at 10 µM [31]: < 15%
inhibition at 10 µM [32]: < 15%
inhibition at 10 µM [33]: < 15%
inhibition at 10 µM [34]: < 15%
inhibition at 10 µM [35]: < 15%
inhibition at 10 µM [36]: 15.8%
inhibition at 10 µM [37]: < 15%
inhibition at 10 µM [38]: < 15%
inhibition at 10 µM [39]: < 15%
inhibition at 10 µM [40]: < 15%
inhibition at 10 µM [41]: < 15%
inhibition at 10 µM [42]: < 15%
inhibition at 10 µM [43]: < 15%
antiproliferative activity against all tested cell lines [44]: did not show activity
inhibition at 10 µM [44, 47]: < 0%
inhibition at 10 µM [45]: < 15%
inhibition at 10 µM [46]: < 15%

COc1ccc(Oc2ccc(C=NNC(=O)CSc3nc4ccccc4c(=O)n3-c3ccccc3)cc2)cc1 [6c, N'-(4–(4-methoxyphenoxy)benzylidene)-2-((4-oxo-3-phenyl-3,4-dihydroquinazolin-2-yl)thio)acetohydrazide]
inhibition at 10 µM [1]: < 15%
inhibition at 10 µM [2]: < 15%
inhibition at 10 µM [3]: < 15%
inhibition at 10 µM [4]: < 15%
inhibition at 10 µM [5]: < 15%
inhibition at 10 µM [6]: < 15%
inhibition at 10 µM [7]: < 15%
inhibition at 10 µM [8]: < 15%
inhibition at 10 µM [9]: < 15%
inhibition at 10 µM [10]: < 15%
inhibition at 10 µM [11]: < 15%
inhibition at 10 µM [12]: < 15%
inhibition at 10 µM [13]: < 15%
inhibition at 10 µM [14]: < 15%
inhibition at 10 µM [15]: < 15%
inhibition at 10 µM [16]: < 15%
inhibition at 10 µM [17]: < 15%
inhibition at 10 µM [18]: < 15%
inhibition at 10 µM [19]: < 15%
inhibition at 10 µM [20]: < 15%
inhibition at 10 µM [21]: < 15%
inhibition at 10 µM [22]: < 15%
inhibition at 10 µM [23]: < 15%
inhibition at 10 µM [24]: < 15%
inhibition at 10 µM [25]: < 15%
inhibition at 10 µM [26]: < 15%
inhibition at 10 µM [27]: < 15%
inhibition at 10 µM [28]: < 15%
inhibition at 10 µM [29]: < 15%
inhibition at 10 µM [30]: < 15%
inhibition at 10 µM [31]: < 15%
inhibition at 10 µM [32]: < 15%
inhibition at 10 µM [33]: < 15%
inhibition at 10 µM [34]: < 15%
inhibition at 10 µM [35]: < 15%
inhibition at 10 µM [36]: 17.2%
inhibition at 10 µM [37]: < 15%
inhibition at 10 µM [38]: < 15%
inhibition at 10 µM [39]: < 15%
inhibition at 10 µM [40]: < 15%
inhibition at 10 µM [41]: < 15%
inhibition at 10 µM [42]: < 15%
inhibition at 10 µM [43]: < 15%
antiproliferative activity against all tested cell lines [44]: no activity
inhibition at 10 µM [44, 47]: 0%
Mean growth inhibition % (mean GI%) [44, 47]: < 0%
inhibition at 10 µM [45]: < 15%
inhibition at 10 µM [46]: < 15%

O=C(CSc1nc2ccccc2c(=O)n1-c1ccc(Cl)cc1)NN=Cc1ccc(N2CCOCC2)cc1 [6k, 2-((3–(4-chlorophenyl)-4-oxo-3,4-dihydroquinazolin-2-yl)thio)-N'-(4-morpholinobenzylidene) acetohydrazide]
inhibition at 10 µM [1]: < 15%
inhibition at 10 µM [2]: < 15%
inhibition at 10 µM [3]: < 15%
inhibition at 10 µM [4]: < 15%
inhibition at 10 µM [5]: < 15%
inhibition at 10 µM [6]: < 15%
inhibition at 10 µM [7]: < 15%
inhibition at 10 µM [8]: < 15%
inhibition at 10 µM [9]: < 15%
inhibition at 10 µM [10]: < 15%
inhibition at 10 µM [11]: < 15%
inhibition at 10 µM [12]: < 15%
inhibition at 10 µM [13]: < 15%
inhibition at 10 µM [14]: < 15%
inhibition at 10 µM [15]: < 15%
inhibition at 10 µM [16]: < 15%
inhibition at 10 µM [17]: < 15%
inhibition at 10 µM [18]: < 15%
inhibition at 10 µM [19]: < 15%
inhibition at 10 µM [20]: < 15%
inhibition at 10 µM [21]: < 15%
inhibition at 10 µM [22]: < 15%
inhibition at 10 µM [23]: < 15%
inhibition at 10 µM [24]: < 15%
inhibition at 10 µM [25]: < 15%
inhibition at 10 µM [26]: < 15%
inhibition at 10 µM [27]: < 15%
inhibition at 10 µM [28]: < 15%
inhibition at 10 µM [29]: < 15%
inhibition at 10 µM [30]: < 15%
inhibition at 10 µM [31]: < 15%
inhibition at 10 µM [32]: < 15%
inhibition at 10 µM [33]: < 15%
inhibition at 10 µM [34]: < 15%
inhibition at 10 µM [35]: < 15%
inhibition at 10 µM [36]: < 15%
inhibition at 10 µM [37]: < 15%
inhibition at 10 µM [38]: < 15%
inhibition at 10 µM [39]: < 15%
inhibition at 10 µM [40]: < 15%
inhibition at 10 µM [41]: < 15%
inhibition at 10 µM [42]: < 15%
inhibition at 10 µM [43]: < 15%
antiproliferative activity against all tested cell lines [44]: did not show activity
inhibition at 10 µM [44, 47]: < 0%
inhibition at 10 µM [45]: < 15%
inhibition at 10 µM [46]: < 15%
